# In patent publication US20200239530A1, “COMPOUNDS AND METHODS OF MODULATING PROTEIN DEGRADATION” (Vividion Therapeutics, Inc., priority 2017, published 2020):
# Molecular target: T1, POGZ Pogo transposable element with ZNF domain (Homo sapiens, UniProt Q7Z3K3)
# T1 construct: Cells were resuspended in cold PBS on ice and sonicated with a probe sonicator to achieve lysis; endogenous in cells
# T1 sequence (Q7Z3K3 1-1410): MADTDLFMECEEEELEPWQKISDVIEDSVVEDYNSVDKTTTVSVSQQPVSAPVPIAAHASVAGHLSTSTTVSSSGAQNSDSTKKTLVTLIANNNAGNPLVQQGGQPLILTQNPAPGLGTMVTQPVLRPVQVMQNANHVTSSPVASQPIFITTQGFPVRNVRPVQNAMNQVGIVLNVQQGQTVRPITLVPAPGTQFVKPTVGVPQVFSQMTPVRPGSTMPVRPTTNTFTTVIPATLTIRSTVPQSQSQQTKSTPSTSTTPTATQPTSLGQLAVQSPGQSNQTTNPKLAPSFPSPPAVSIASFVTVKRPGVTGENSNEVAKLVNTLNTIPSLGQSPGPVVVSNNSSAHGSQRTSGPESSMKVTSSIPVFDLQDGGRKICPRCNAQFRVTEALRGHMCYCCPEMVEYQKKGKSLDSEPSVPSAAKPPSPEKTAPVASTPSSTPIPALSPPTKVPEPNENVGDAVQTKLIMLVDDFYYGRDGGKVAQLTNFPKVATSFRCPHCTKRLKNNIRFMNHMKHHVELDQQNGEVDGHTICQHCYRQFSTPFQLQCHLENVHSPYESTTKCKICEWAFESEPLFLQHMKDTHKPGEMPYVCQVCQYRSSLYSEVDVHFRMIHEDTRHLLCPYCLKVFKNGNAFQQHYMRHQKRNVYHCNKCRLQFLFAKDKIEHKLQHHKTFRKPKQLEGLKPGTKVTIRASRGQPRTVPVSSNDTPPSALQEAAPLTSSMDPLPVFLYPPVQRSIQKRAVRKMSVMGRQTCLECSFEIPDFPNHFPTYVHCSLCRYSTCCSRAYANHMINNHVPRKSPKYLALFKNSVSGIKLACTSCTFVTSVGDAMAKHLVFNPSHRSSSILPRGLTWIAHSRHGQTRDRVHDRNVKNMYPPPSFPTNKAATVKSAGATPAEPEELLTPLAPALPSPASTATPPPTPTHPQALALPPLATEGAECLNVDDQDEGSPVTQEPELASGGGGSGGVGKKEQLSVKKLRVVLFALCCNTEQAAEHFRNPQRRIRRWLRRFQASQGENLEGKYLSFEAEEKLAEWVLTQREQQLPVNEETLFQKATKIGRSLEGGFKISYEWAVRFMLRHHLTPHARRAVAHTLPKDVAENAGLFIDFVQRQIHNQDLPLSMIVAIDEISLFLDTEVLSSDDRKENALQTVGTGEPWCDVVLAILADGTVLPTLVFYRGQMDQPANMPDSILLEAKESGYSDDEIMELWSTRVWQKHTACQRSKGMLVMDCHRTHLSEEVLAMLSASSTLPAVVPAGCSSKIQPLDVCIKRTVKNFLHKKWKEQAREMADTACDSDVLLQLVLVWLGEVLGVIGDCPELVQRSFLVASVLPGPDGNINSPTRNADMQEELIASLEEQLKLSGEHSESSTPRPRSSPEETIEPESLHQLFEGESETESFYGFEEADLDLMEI
# Assay: Cysteine liganding, probe competition
# Format: binding
# Procedure, shortened: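 Probe competition in native proteome: 5 mg/ml lysate, compound 1 hr 25° C, then desthiobiotin iodoacetamide (10 mM stock) 1 hr 25° C; acetone ppt, urea/DTT reduction, iodoacetamide alkylation, trypsin, streptavidin pull-down.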
SMILES,"Liganded (POGZ Res# 547, uniprot Q7Z3K3)",100 Max (uniprot Q7Z3K3),100 ave (uniprot Q7Z3K3),500 Max (uniprot Q7Z3K3),500 ave (uniprot Q7Z3K3)
COc1ccc2c(c1)CCCN2C(=O)CCl [KB02],YES,–,–,–,–
O=C(CCl)Nc1cc(C(F)(F)F)cc(C(F)(F)F)c1 [KBO3],–,2.21,−8.9575,15.64,13.995
